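All cell lines were grown in 96-well plates and treated with compound for 48 hours. Here, GI50 denotes the concentration required for 50% inhibition of growth. TGI: total growth inhibition.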 Bounds are passed on as bounds.

These results are taken from PubChem BioAssay (NCI).

Among the test systems are DU-145 prostate; HS 578T breast; MCF7 breast; MDA-MB-435; PC-3 prostate; T-47D breast.
What all share (assay): growth of human tumour cells (NCI), 48 h

With `CC[C@@H](C(=O)[C@@H](C)[C@@H](O)[C@H](C)[C@@H]1O[C@@H]([C@@H](CC)C(=O)O)CC[C@@H]1C)[C@H]1O[C@]2(C=C[C@@H](O)[C@]3(CC[C@@](C)([C@H]4CC[C@](O)(CC)[C@H](C)O4)O3)O2)[C@H](C)C[C@@H]1C`, the GI50 with DU-145 prostate was 1.71 µM; in the assay with HS 578T breast, 0.914 µM; with MCF7 breast, 0.315 µM; in the assay with MDA-MB-435, 1.08 µM; with PC-3 prostate it was 0.084 µM; in the assay on T-47D breast it was 0.383 µM. Further, the TGI was found to be 28.5 µM in the assay on DU-145 prostate; 36.1 µM in the assay with HS 578T breast; 13.1 µM in the assay with MCF7 breast; 2.72 µM with MDA-MB-435; 32.6 µM in the assay with PC-3 prostate; 16.7 µM in the assay with T-47D breast.
`CCOc1ccccc1N=Cc1c2ccccc2cc2ccccc12`: the TGI in the assay with DU-145 prostate was 58.4 µM; in the assay on HS 578T breast, over 53.9 µM; in the assay with MCF7 breast, over 79.8 µM; with MDA-MB-435 it was 56 µM; in the assay with PC-3 prostate, over 68.8 µM; in the assay with T-47D breast, 64.1 µM.
On to `C1CC[N-]CC1.CC(=N\O)/C(C)=N/O.CC(=N\O)/C(C)=N/O.C[CH-]C(C)O.[Co+2]`, for which the GI50 was 81.1 µM in the assay with DU-145 prostate; 28 µM in the assay with HS 578T breast; 24.4 µM in the assay with MCF7 breast; 23.1 µM in the assay with MDA-MB-435; 26.7 µM in the assay on PC-3 prostate; 12.6 µM with T-47D breast. Also, the TGI in the assay with DU-145 prostate was over 100 µM; with HS 578T breast it was 83.1 µM; in the assay on MCF7 breast it was 57.8 µM; with MDA-MB-435, 51.7 µM; with PC-3 prostate, 70.8 µM; in the assay with T-47D breast it was 41.1 µM.
On to `CSc1nc2ccc(C)cc2cc1/C=C1/C=C(c2ccccc2)NC1=O`, for which the GI50 in the assay with DU-145 prostate was 6.72 µM; in the assay with HS 578T breast it was 1.92 µM; with MCF7 breast, 12.5 µM; in the assay with MDA-MB-435 it was 0.718 µM; with PC-3 prostate, 5.32 µM; with T-47D breast, 1.66 µM. For the same compound, the TGI in the assay on DU-145 prostate is 96.1 µM; with HS 578T breast, 7.46 µM; with MCF7 breast it was over 100 µM; in the assay with MDA-MB-435 it was 21 µM; with PC-3 prostate, over 100 µM; in the assay with T-47D breast, 24.5 µM.
For the compound `N#Cc1cc2c(cc1Cl)SC(=Nc1ccccc1)N(S(=O)(=O)c1ccc(Br)s1)S2(=O)=O`, the GI50 in the assay on DU-145 prostate is 20.6 µM; in the assay on HS 578T breast, 24 µM; in the assay on MCF7 breast, 13.6 µM; in the assay with MDA-MB-435, 16.1 µM; in the assay with PC-3 prostate, 17.8 µM; in the assay on T-47D breast, 24.3 µM. Also, the TGI came to 43.4 µM with DU-145 prostate; 53.9 µM with HS 578T breast; 39.5 µM with MCF7 breast; 33.9 µM in the assay with MDA-MB-435; 37.3 µM with PC-3 prostate; 75 µM in the assay with T-47D breast.
As for `O=C1C(OC(=O)c2ccccc2)=C(c2ccc(O)cc2)C(=O)C(OC(=O)c2ccccc2)=C1c1ccc(O)cc1`, the TGI with DU-145 prostate, in the assay with HS 578T breast, in the assay with MCF7 breast, in the assay with MDA-MB-435, in the assay with PC-3 prostate and in the assay on T-47D breast was over 100 µM in each case.
For `C=C(CN1CCN(c2ccc(F)c(Cl)c2)CC1)c1ccc(C(=O)Nc2ccccc2N)cc1`, the GI50 is 8.76 µM in the assay on DU-145 prostate; 7.39 µM in the assay with HS 578T breast; 5.17 µM in the assay with MCF7 breast; 3.2 µM with MDA-MB-435; 2.34 µM with PC-3 prostate; over 100 µM in the assay with T-47D breast. For the same compound, the TGI in the assay on DU-145 prostate is 40.4 µM; with HS 578T breast, over 100 µM; with MCF7 breast, over 100 µM; with MDA-MB-435 it was 12.6 µM; with PC-3 prostate it was 9.23 µM; in the assay on T-47D breast, over 100 µM.
As to `CC1=C(SCCC(=O)OC(C[Se]C2=C(C)C(=O)c3ccccc3C2=O)C(=O)NC(C)(C)C)C(=O)c2ccccc2C1=O` (configuration not stated), the GI50 was 1.49 µM in the assay with DU-145 prostate; 1.07 µM in the assay with HS 578T breast; 1.62 µM with MCF7 breast; 1.77 µM in the assay with MDA-MB-435; 0.457 µM in the assay with PC-3 prostate; 0.904 µM in the assay on T-47D breast. Besides, the TGI in the assay with DU-145 prostate amounted to 2.82 µM; in the assay on HS 578T breast, 3.31 µM; in the assay on MCF7 breast it was 3.65 µM; with MDA-MB-435, 3.77 µM; in the assay on PC-3 prostate, 1.69 µM; with T-47D breast it was 2.95 µM.
Take `CN(C)CCOc1ccc2c(c1)C(=O)/C(=C\c1ncc([N+](=O)[O-])n1C)C2`: the GI50 with DU-145 prostate is 0.234 µM; with HS 578T breast, 1.87 µM; with MCF7 breast, 0.216 µM; in the assay on MDA-MB-435 it was 0.209 µM; in the assay with PC-3 prostate it was 0.965 µM; in the assay with T-47D breast, 1.76 µM. The TGI in the assay with DU-145 prostate was determined as 0.661 µM; in the assay with HS 578T breast it was 5.37 µM; with MCF7 breast it was 2.5 µM; in the assay on MDA-MB-435, 0.643 µM; in the assay with PC-3 prostate it was 4.82 µM; in the assay with T-47D breast, 11.4 µM.
For the compound `CNC(=O)c1cc(-c2ccc(F)cc2)cc(-c2ccc(S(=O)(=O)N3CCCC3)cc2)c1N`, the GI50 with DU-145 prostate is over 25 µM; in the assay on HS 578T breast it was over 11.1 µM; in the assay with MCF7 breast it was 8.79 µM; with MDA-MB-435, over 25 µM; in the assay on PC-3 prostate, 8.54 µM; in the assay with T-47D breast, 10.5 µM. For the same compound, the TGI with DU-145 prostate, in the assay on HS 578T breast, in the assay on MCF7 breast, in the assay on MDA-MB-435, in the assay with PC-3 prostate and in the assay with T-47D breast was over 25 µM each time.
As for `Cn1cc(-c2csc(-c3cn(C(=O)OC(C)(C)C)c4ccccc34)n2)c2cccnc21`, the GI50 with DU-145 prostate was 5.17 µM; with HS 578T breast it was 3.93 µM; with MCF7 breast it was 2.85 µM; in the assay on MDA-MB-435, 1.68 µM; in the assay on PC-3 prostate it was 4.89 µM; in the assay on T-47D breast it was 3.71 µM. Also, the TGI is 21.6 µM in the assay on DU-145 prostate; 25.7 µM in the assay on HS 578T breast; 16.3 µM in the assay on MCF7 breast; 22.2 µM in the assay with MDA-MB-435; 24.4 µM in the assay with PC-3 prostate; 15.6 µM with T-47D breast.
Turning to `CCCCCCCCc1cc(O)ccc1O`, the GI50 is 21.9 µM with DU-145 prostate; 15.4 µM with HS 578T breast; 24.8 µM with MCF7 breast; 19.5 µM in the assay on MDA-MB-435; 16 µM with PC-3 prostate; 14.2 µM in the assay on T-47D breast. Moreover, the TGI with DU-145 prostate was 52.5 µM; in the assay on HS 578T breast it was 53.5 µM; in the assay with MCF7 breast it was 66.8 µM; in the assay on MDA-MB-435 it was 49.7 µM; in the assay on PC-3 prostate, 37.3 µM; in the assay with T-47D breast it was 37.6 µM.
